Values quoted from earlier work in article PMC4621754, “Parasitic diarrheal disease: drug development and targets” (Frontiers in Microbiology, 2015).
Where two headings read alike, the source gives them in different places.

Key:
I. belli = details: for cure of I. belli induced diarrhea: ref Trier et al., 1974, Syrkis et al., 1975, Butler and De Boer, 1981, Weiss et al.
[1] = HM1: IMSS strain, ref Wani et al., 2012b
[2] = HM1:IMSS strain, ref Duque-Montaño et al., 2013
[3] = ref Navarrete-Vazquez et al., 2003
[4] = in vitro, ref Hernández-Nunez et al., 2009
[5] = ref Hernández-Nunez et al., 2009
[6] = in vitro, ref Torres-Gomez et al., 2008b

## O=C1OCCN1/N=C/c1ccc([N+](=O)[O-])o1 [furazolidone, Furazolidone]
I. belli; 1988
  cure of I. belli induced diarrhea: cure the I. belli induced diarrhea but to lesser extent

## O=[N+]([O-])c1cccc(/C=N/Nc2ccccc2)c1 [Compound 44, (E)-1-(3-nitrobenzylidene)-2-phenylhydrazine]
E. histolytica; in vitro, HM1:IMSS strain, ref Toledano-Magana et al., 2015
  IC50: 840 nM

## Cc1ccc(/C=C/C(=O)c2ccc(C)cc2)cc1 [Compound 25, (2E)-1,3-bis(4-methylphenyl)prop-2-en-1-one]
E. histolytica; [1]
  IC50: 4190 nM

## COc1ccc(-c2nnnn2CC(=O)N2N=C(c3ccccc3)CC2c2ccc(OC)cc2)cc1 (stereo not drawn) [Compound 26, 1-(4,5-dihydro-5-(4-methoxyphenyl)-3-phenylpyrazol-1-yl)-2-(5-(4-methoxyphenyl)-1H-tetrazol-1-yl)ethanone]
E. histolytica; [1]
  IC50: 1160 nM

## cyclosporine A [reference compound]
E. histolytica; ref Carrero et al., 2004
  proliferation of E. histolytica: inhibits proliferation

## Cn1c(C(F)(F)F)nc2cc(Cl)ccc21 [Compound 60, 5-chloro-1-methyl-2-(trifluoromethyl)benzimidazole]
G. lamblia; in vitro, ref Gabriel Navarrete-Vaa Zquez et al., 2001
  IC50: 42 nM

## Ni(Fctpy)2][PF6]2 [Compound 22]
E. histolytica; ref Juneja et al., 2014
  activity against E. histolytica: most promising activity

## O=[N+]([O-])c1ccc(S(=O)(=O)Nc2nc(NS(=O)(=O)c3ccc([N+](=O)[O-])cc3)nc(-c3ccc4c(c3)OCO4)n2)cc1 [Compound 27, N, N^∕-6-(1,3-benzodioxol-5-yl)-(1,3,5-triazine-2,4-diyl)-bis-4-nitrobenzene sulphonamide]
E. histolytica; ref Wani et al., 2012a
  IC50: 1020 nM

## COc1cc(NC(c2coc3ccccc3c2=O)c2nnnn2C2CCCCC2)cc(OC)c1OC (stereo not drawn) [Compound 67, 3-((1-cyclohexyl-1H-tetrazol-5-yl)((3,4,5-trimethoxyphenyl)amino)methyl)-4H-chromen-4-one]
G. lamblia; ref Cano et al., 2014
  IC50: 171000 nM

## CC[C@H]1OC(=O)[C@H](C)[C@@H](O[C@H]2C[C@@](C)(OC)[C@@H](O)[C@H](C)O2)[C@H](C)[C@@H](O[C@@H]2O[C@H](C)C[C@H](N(C)C)[C@H]2O)[C@](C)(O)C[C@@H](C)/C(=N\OCOCCOC)[C@H](C)[C@@H](O)[C@]1(C)O [roxithromycin]
I. belli; when TMP-SMX or pyrimethamine treatments become inadequate, ref Musey et al., 1988
  efficacy in chronic I. belli induced diarrhea: effective

## COC(=O)c1ccc2c(c1)[n+]([O-])c(C(C)=O)c(C)[n+]2[O-] [Compound 37, methyl 2-acetyl-3-methyl-quinoxaline-7-carboxylate 1,4-di-N-oxide]
E. histolytica; [2]
  IC50: 1410 nM

## CC(C)c1ccccc1C1CC(c2ccccc2)=NN1c1nc2nc3ccccc3nc2s1 (stereo not drawn) [Compound 33, 2-{5-[2-(methylethyl)phenyl]-3-phenyl-2-pyrazolinyl}-1,3-thiazolino[5,4-b]quinoxaline]
E. histolytica; HM1:IMSS strain, ref Budakoti et al., 2009
  IC50: 170 nM

## Cn1c(C(F)(F)F)nc2ccc(C(=O)c3ccccc3)cc21 [Compound 66, 6-benzoyl-1-methyl-2-(trifluoromethyl)-1H-benzimidazole]
G. lamblia; [3]
  IC50: 1280 nM

## CCS(=O)(=O)CCn1c([N+](=O)[O-])cnc1C [tinidazole]
I. belli; 1988
  cure of I. belli induced diarrhea: cure the I. belli induced diarrhea but to lesser extent

## CCCSc1ccc2[nH]c(C(F)(F)F)nc2c1 [Compound 64, 5(6)-(propylthio) -2-(trifluoromethyl)-1H-benzimidazole]
G. lamblia; [3]
  IC50: 1520 nM

## Cc1cccc(NC(=S)NN=Cc2ccc(-c3c4nc(c(-c5ccccc5)c5ccc([nH]5)c(-c5ccccc5)c5nc(c(-c6ccccc6)c6ccc3[nH]6)C=C5)C=C4)cc2)c1 [Compound 30, 4-(3-methylphenyl)-1-{[4-(10,15,20-triphenylporphyrin-5-yl)phenyl]methylidene}thiosemicarbazide]
E. histolytica; ref Bhat et al., 2008
  IC50: 538 nM

## CCCSc1ccc2nc(C(F)(F)F)n(C)c2c1 [Compound 63, 1-methyl-6-(propylthio)-2-(trifluoromethyl)-1H-benzimidazole]
G. lamblia; [3]
  IC50: 1400 nM

## Cc1nc([N+](=O)[O-])cn1CC(=O)Nc1ccc(C#N)cc1 [Compound 72, N-(4-cyanophenyl)-2-(2-methyl-4-nitro-1H-imidazol-1-yl) acetamide]
G. lamblia; [4]
  IC50: 11200 nM

## Cc1ccc(S(=O)(=O)n2cc([N+](=O)[O-])nc2C)cc1 [Compound 43, 2-methyl-1-[(4-methylphenyl)sulfonyl]-4-nitro-1H-imidazole]
E. histolytica; [5]
  IC50: 3550 nM

## Cn1c(C(F)(F)F)nc2cc(C(=O)c3ccccc3)ccc21 [Compound 65, 5-benzoyl-1-methyl-2-(trifluoromethyl)-1H-benzimidazole]
G. lamblia; [3]
  IC50: 1100 nM

## COc1ccc(Nc2c(C#N)cnc3sccc23)cc1 [Compound 58, 4-(4-methoxyphenylamino)thieno[2,3-b]pyridine-5-carbonitrile]
G. lamblia; ref Bernardino et al., 2006
  giardicidal effect: excellent giardicidal effect

## CCc1nc(N)nc(N)c1-c1ccc(Cl)cc1 [pyrimethamine]
I. belli; ref Ferguson et al., 1980, Ebrahimzadeh and Bottone, 1996
  cure of diarrheal disease caused by I. belli: cure the diarrheal disease

## COc1ccc(NC(=O)C(N)CCSC(F)(F)F)cc1OC (stereo not drawn) [Compound 40, 3,4-dimethoxyanilide trifluoromethionine]
E. histolytica; in vitro, ref Sato et al., 2010
  IC50: 1190 nM

## COc1ccc(C2ON=C(c3ccc([N+](=O)[O-])s3)O2)cc1 (stereo not drawn) [Compound 29, 5-(4-methoxy-phenyl)-3-(5-nitro-2-thienyl)-1,4,2-dioxazole]
E. histolytica; in vitro, ref Irfan et al., 2010
  IC50: 1600 nM

## O=[N+]([O-])c1ccc(NC(=S)N2N=C(c3ccccc3)CC2c2ccc(C3CC(c4ccccc4)=NN3C(=S)Nc3ccc([N+](=O)[O-])cc3)cc2)cc1 (stereo not drawn) [Compound 32]
E. histolytica; ref Bhat et al., 2009a
  IC50: 420 nM

## COc1cc(-c2nc3cc(C)ccc3[nH]2)ccc1OCCCCCOc1ccc(-c2nc3cc(C)ccc3[nH]2)cc1OC [Compound 59, 1,5-bis[2-methoxy-4-(5-methyl-1H-benzimidazole-2-yl)phenoxy] pentane]
G. lamblia; [6]
  IC50: 372 nM
G. lamblia; ref Torres-Gomez et al., 2008a
  IC50: 372 nM
  folds more potent than metronidazole: 3 folds
  folds more potent than pentamidine: 9 folds
G. lamblia; ref Torres-Gomez et al., 2008b
  fold more activity than metronidazole: 3 fold
  fold more activity than pentamidine: 9 fold

## 1,1^∕-(10,15-diphenyl-21,23-dithiaporphine-5,20-diyl)bis[2-{[methyl(phenylmethyl)amino]methyl}-ferrocene] [Compound 34]
E. histolytica; in vitro, HM1:IMSS strain, ref Bhat et al., 2009b
  IC50: 590 nM

## COc1ccc2[nH]c(-c3ccc(OCCCCCOc4ccc(-c5nc6cc(OC)ccc6[nH]5)cc4)cc3)nc2c1 [Compound 41, 1,5-bis[4-(5-methoxy-1H-benzimidazole-2-yl)phenoxy]pentane]
E. histolytica; [6]
  IC50: 109 nM

## Cc1nc([N+](=O)[O-])cn1CC(=O)NCc1ccccc1 [Compound 42, N-benzyl-2-(2-methyl-4-nitro-1H-imidazol-1-yl)acetamide]
E. histolytica; [5]
  IC50: 3960 nM

## CC(=NNC(=S)NCc1ccc(C)cc1)c1c(O)ccc2ccc(=O)oc12 [Compound 31, 7-hydroxy-8-acetylcoumarin-N(4,4)methylbenzyl thiosemicarbazone]
E. histolytica; ref Iqbal et al., 2009
  IC50: 1060 nM

## COc1ccc(C(=O)/C=C/c2ccccc2F)cc1 [Compound 61, (E)-3-(6-flourophenyl)-1-(4-methoxyphenyl)prop-2-en 1-one]
G. lamblia; ref Montes-Avila et al., 2009
  IC50: 12700 nM

## Cc1nc([N+](=O)[O-])cn1S(=O)(=O)c1ccc([N+](=O)[O-])cc1 [Compound 73, 2-methyl-4-nitro-1-[(4-nitrophenyl)sulfonyl]-1H-imidazole]
G. lamblia; [4]
  IC50: 7500 nM

## CCOC(=O)c1ccc2c(c1)[n+]([O-])c(C(N)=O)c(C)[n+]2[O-] [Compound 38, ethyl 2-amide-3-methylquinoxaline-7-carboxylate 1,4-di-N-oxide]
E. histolytica; [2]
  IC50: 1470 nM

## O=S(=O)(Nc1nc(-c2ccccc2)cc(-c2ccccc2Cl)n1)c1ccccc1 [Compound 28, N-[4-(2-chlorophenyl)-6-phenylpyrimidin-2-yl]-benzenesulphonamide]
E. histolytica; in vitro, ref Siddiqui and Azam, 2014
  IC50: 440 nM
